Test system: IL 1-induced release of neutral protease from rabbit articular chondrocytes
Test: inhibition of IL 1-induced release of neutral protease from rabbit articular chondrocytes
Type: cell-based, rabbit (New Zealand White)
Conditions: Oryctolagus cuniculus, Chondrocyte, human IL 1 stimulation, 24 h, compound added 10 min before IL 1, ± S.D., read-out: % Inhibition (of protease secretion)
Experimental: The ability of the compounds of the inventions to inhibit interleukin 1 is measured by the ability of the test compounds to inhibit the IL 1-induced release of neutral protease from rabbit articular chondrocytes.
Male New Zealand White rabbits are anesthetized with 50 mg/kg of ketamine (i.m.) and killed by an intracardiac injection of 3 mls. of Nembutal. The knee joints of both legs are resected and the articular surfaces are exposed. Cartilage slices are obtained using a scalpel and are placed in a tissue culture dish (100 mm diameter) containing 10 mls of Hank's balanced salt solution (HBSS). The chondrocytes within the cartilage slices are then liberated by a series of enzyme digestions. The slices are incubated for 10 min. at 37° C. in 0.05% hyaluronidase (Sigma H-3884), rinsed with HBSS and incubated with 0.2% trypsin (Sigma T-2395) for 10 min. at 37° C. The slices are rinsed again and incubated for 10 mins. at 37° C. with 1.2% collagenase (Sigma C-5138). The slices are then rinsed again with HBSS and resuspended in 10 ml of Ham's F-12 medium containing 10% fetal bovine calf serum (FCS) and 0.2 % collagenase and incubated overnight at 37° C. in a 5% CO2 incubator. The next day, the medium containing the digested cartilage fragments and liberated chondrocytes is transferred to a 15 ml centrifuge tube and the cells are collected by centrifugation and washed twice and resuspended in Ham's F-12 medium. The cells are then plated into 24-well tissue culture plates (2×10^5 cells/well) and incubated at 37° C. until confluent (usually 4-6 days).
The confluent chondrocytes are rinsed twice with serum-free Ham's F-12 medium and 1 ml is added to each well. Fifty μl of purified human IL 1 (100 Units/ml; Genzyme Corporation, Boston, MA) is then added to stimulate these cells to secrete neutral protease. To measure drug effects, the cells are treated with test compound 10 min. prior to addition of IL 1. The standard screening dose is 10 μM. Twenty-four hours after IL 1 stimulation, supernatant fluids are collected and assayed for neutral protease activity.
The neutral protease activity of chondrocyte supernatant fluids is determined by their ability to degrade an insoluble protease substrate, azocoll (Sigma). Supernatants are treated for 10 min. at room temperature with 350 μM p-aminophenylmercuric acetate to activate the latent enzyme. Three hundred μl of supernatant is then mixed with 500 μl of a 20 mg/ml suspension of azocoll and incubated at 37° C. for 18-24 hrs. with gentle rocking. The mixtures are centrifuged and the amount of substrate hydrolyzed is determined by measuring the absorbance of the supernatant at 520 nm.
Drug effects are calculated as the % change in enzyme activity (absorbance)by supernatants from drug-treated chondrocytes relative to enzyme activity of supernatants from vehicle-treated chondrocytes as follows: % Inhibition of Protease Secretion= [formula]

SMILES | inhibition at 1 µM [%] | inhibition at 5 µM [%] | inhibition at 10 µM [%]
N#Cc1ccc(N2CCC3(CC2)Nc2cc(Cl)ccc2C(=O)O3)cc1 [Example 1, 4-[7-Chloro-1,3-dihydro-4-oxospiro[2H-3,1-benzoxazine-2,4'-piperidin]-1-yl]benzonitrile] | 56 ± 22 | 55 ± 19 | 47 ± 34
CS(=O)(=O)c1ccc(N2CCC3(CC2)Nc2cc(Cl)ccc2C(=O)O3)cc1 [Example 2, 7-Chloro-1'-[4-(methylsulfonyl)phenyl]spiro[2H-3,1-benzoxazine-2,4'-piperidin]-4(1H)-one] | 30 ± 31 | 48 ± 7 | 51 ± 32
